Reference: ChEMBL document CHEMBL5126563, “Design, synthesis, in silico studies, and antiproliferative evaluations of novel indolin-2-one derivatives containing 3-hydroxy-4-pyridinone fragment” (Bioorg Med Chem Lett, 2022)

Assays:
Assay type in all cases: functional, cell-based
MOLM-13 = experiment: Cytotoxicity against human MOLM-13 cells measured after 48 hrs by MTT assay; details: MOLM-13, 48 h
K562 = experiment: Cytotoxicity against human K562 cells measured after 48 hrs by MTT assay; details: K562, 48 h
A549 = experiment: Cytotoxicity against human A549 cells measured after 48 hrs by MTT assay; details: A549, 48 h
MCF7 = experiment: Cytotoxicity against human MCF7 cells measured after 48 hrs by MTT assay; details: MCF7, 48 h

| SMILES | EC50 (MOLM-13) [µM] | EC50 (K562) [µM] | EC50 (A549) [µM] | EC50 (MCF7) [µM] |
| --- | --- | --- | --- | --- |
| N#Cc1cc2cc(CN3CCC(Nc4ncnc5sc(CC(F)(F)F)cc45)CC3)c(O)cc2n1Cc1cn[nH]c1 | 0.14 | 2.7 |  |  |
| CC(=O)Nc1ccc(NC(=O)CN2C(=O)/C(=N\NC(=O)Cn3ccc(=O)c(O)c3C)c3ccccc32)cc1 |  |  | > 100 | 51.9 |
| Cc1c(O)c(=O)ccn1CC(=O)N/N=C1\C(=O)N(CC(=O)Nc2cccc(Cl)c2)c2ccccc21 |  |  | 28 | 34.6 |
| Cc1cccc(NC(=O)CN2C(=O)/C(=N\NC(=O)Cn3ccc(=O)c(O)c3C)c3ccccc32)c1C |  |  | 39.2 | 51.9 |
| Cc1ccc(NC(=O)CN2C(=O)/C(=N\NC(=O)Cn3ccc(=O)c(O)c3C)c3ccccc32)cc1 |  |  | 47.5 | 52.2 |
| Cc1c(O)c(=O)ccn1CC(=O)N/N=C1\C(=O)N(CC(=O)Nc2ccccc2Cl)c2ccccc21 |  |  | > 100 | 46.4 |
| Cc1c(O)c(=O)ccn1CC(=O)N/N=C1\C(=O)N(CC(=O)Nc2ccc(Cl)cc2Cl)c2ccccc21 | 1.62 | 1.81 | 61.5 | 43.2 |
| Cc1c(O)c(=O)ccn1CC(=O)N/N=C1\C(=O)N(CC(=O)Nc2ccccc2)c2ccccc21 |  |  | 29.2 | 48.4 |
| Cc1c(O)c(=O)ccn1CC(=O)N/N=C1\C(=O)N(CC(=O)Nc2cc(Cl)cc(Cl)c2)c2ccccc21 | 0.69 | 1.22 | 22.1 | 35.1 |
| Cc1c(O)c(=O)ccn1CC(=O)N/N=C1\C(=O)N(CC(=O)Nc2ccc(Cl)cc2)c2ccccc21 |  |  | 28.3 | 31.4 |
| Cc1c(O)c(=O)ccn1CC(=O)N/N=C1\C(=O)N(CC(=O)Nc2ccc(Br)cc2)c2ccccc21 | 1.17 | 1.85 | 29.3 | 32.5 |
| COc1ccc(NC(=O)CN2C(=O)/C(=N\NC(=O)Cn3ccc(=O)c(O)c3C)c3ccccc32)cc1 |  |  | 78 | > 100 |
| C#Cc1cccc(Nc2ncnc3cc(OCCOC)c(OCCOC)cc23)c1 [ERLOTINIB] |  |  | 0.29 | 2.83 |
